According to ChEMBL document CHEMBL1201862, “PubChem BioAssay data set” (2004):
Where “and” joins values, the source holds several entries; their conditions need not be identical. Equal values may be shown once.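 Tested at 5 concentrations; 48 h exposure; 96-well plates; endpoints linearly interpolated, else capped at highest concentration. Here, GI50 denotes the concentration required for 50% inhibition of growth.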 Calls of active or inactive are those of the source. Cut-off read from the data, not from the text of the source: active = GI50 up to about 1.1 µM and inactive = higher. Non-standard residues stand in square brackets, D forms with d. Residues, ends and D or L forms follow the SMILES beside them. ξ: configuration not given here. *: point of attachment. NMeF = CN[C@@H](Cc1ccccc1)C(=O)O; ξNMeV = CNC(C(=O)O)C(C)C; Boc = CC(C)(C)OC(=O)*; OBn = c1ccc(CO*)cc1

What was measured:
Assay in all cases: inhibition of tumour cell growth, NCI panel, 48 h
[1] = tested on: SK-OV-3
[2] = tested on: OVCAR-4
[3] = tested on: SNB-19
[4] = tested on: 786-0
[5] = tested on: SF-268
[6] = tested on: TK-10
[7] = tested on: OVCAR-5
[8] = tested on: CAKI-1
[9] = tested on: A549
[10] = tested on: ACHN
[11] = tested on: SK-MEL-5
[12] = tested on: CCRF-CEM
[13] = tested on: U-251
[14] = tested on: KM12
[15] = tested on: NCI-H226

Measured: GI50

Nc1ccc(C(=O)O)c2[nH]c3ccccc3c(=O)c12
inactive: [1] > 100 µM | [2] > 100 µM | [3] > 100 µM | [4] > 100 µM | [5] > 100 µM | [6] > 100 µM | [7] > 100 µM | [8] > 100 µM | [9] > 100 µM | [10] > 100 µM | [11] > 100 µM | [12] 88.7 µM | [13] > 100 µM | [14] > 100 µM

O=C1c2ccccc2N2OC3(N4CCCC4)CCCC3C12c1ccccc1 (stereo unspecified)
inactive: [1] > 100 µM | [2] 29.6 µM | [3] > 100 µM | [4] > 100 µM | [5] > 100 µM | [15] > 100 µM | [9] 68.5 µM | [10] > 100 µM | [11] 61.4 µM | [12] > 100 µM | [13] > 100 µM

NC(=O)CCC(Nc1c2ccccc2nc2ccccc12)C(=O)O (stereo unspecified)
inactive: [2] 4.14 µM | [4] > 100 µM | [5] > 100 µM | [6] > 100 µM | [7] > 100 µM | [8] > 100 µM | [15] > 100 µM | [9] > 100 µM | [10] 91 µM | [12] > 100 µM | [13] > 100 µM | [14] > 100 µM

CC(C)C(C(=O)N1CCC[C@@H]1C(=O)OCc1ccccc1)N(C)C(=O)C(C(C)C)N(C)C(=O)[C@H](Cc1ccccc1)N(C)C(=O)[C@H](NC(=O)OC(C)(C)C)C(C)C (stereo partly specified) (Boc-[dV][NMeF][ξNMeV][ξNMeV][dP]-OBn)
inactive: [1] > 100 µM | [2] > 54.2 µM | [3] > 100 µM | [4] > 100 µM | [5] > 86.1 µM | [6] > 100 µM | [7] > 100 µM | [15] > 100 µM | [9] 6.55 µM | [10] 16.7 µM | [11] 14.9 µM | [12] > 54.5 µM | [13] > 100 µM | [14] > 80.7 µM

O=S(O)CCCCSSCC(O)C(O)CSSCCCCS(=O)O (stereo unspecified)
inactive: [1] > 100 µM | [2] 10.7 µM and 5.66 µM | [3] 50 µM and 55.6 µM | [4] > 100 µM | [5] 17.5 µM and 12.2 µM | [6] 68.2 µM and 53.8 µM | [7] > 100 µM and 74.8 µM | [8] 51.6 µM and 56.9 µM | [9] 34.5 µM and 27.1 µM | [10] 26.1 µM and 22.1 µM | [12] 3.37 µM and 3.21 µM | [13] 71.1 µM and 50.6 µM | [14] 21.2 µM and 15 µM

CCCCCC(CN1CCOCC1)C(=O)/C=C/c1ccccc1 (stereo unspecified)
inactive: [1] 2.71 µM | [2] 2.95 µM | [3] 3.43 µM | [4] 1.76 µM | [5] 1.94 µM | [7] 2.63 µM | [15] 3.36 µM | [9] 3.3 µM | [11] 1.53 µM | [12] 1.94 µM | [13] 2.77 µM | [14] 1.76 µM

Clc1cc2n[se]nc2cc1Cl
inactive: [1] > 100 µM | [2] > 100 µM | [3] > 100 µM | [4] > 100 µM | [5] > 100 µM | [6] > 100 µM | [7] > 100 µM | [8] > 100 µM | [9] > 100 µM | [10] > 100 µM | [11] > 100 µM | [12] > 100 µM | [13] > 100 µM | [14] > 100 µM

[N-]=[N+]=NC1C(Cl)C(=O)NC(=O)N1[C@H]1C[C@H](O)[C@@H](CO)O1 (stereo partly specified)
inactive: [1] > 100 µM | [2] > 100 µM | [3] > 100 µM | [4] > 100 µM | [6] > 100 µM | [7] > 100 µM | [8] > 100 µM | [9] > 100 µM | [10] > 100 µM | [13] > 100 µM | [14] > 100 µM
